One data set addresses PDE4 (cAMP-specific). Briefly: Inhibition of PDE isoenzymes: PDE4. It counts as biochemical. Particulars: cytosol of human polymorphonuclear leukocytes (PMNL), cAMP as substrate, motapizone 1 μM. The procedure:
(§1) 1. Inhibition of PDE Isoenzymes
(§2) The PDE activity was determined according to Thompson et al. (Adv Cycl Nucl Res 10: 69-92, 1979) with some modifications (Bauer and Schwabe, Naunyn-Schmiedeberg's Arch Pharmacol 311: 193198, 1980). The test samples contained 20 mM Tris (pH 7.4), 5 mM MgCl2, 0.5 μM cAMP or cGMP, [^3H]cAMP or [^3H]cGMP (about 30 000 cpm/sample), the PDE isoenzyme-specific additives described in greater detail below, the indicated concentrations of inhibitor and an aliquot of the enzyme solution in a total sample volume of 200 μl. Dilution series of the compounds according to the invention were prepared in DMSO and further diluted in the samples [1:100 (v/v)], to give the desired end concentration of the inhibitors at a DMSO concentration of 1% (v/v), which for its part has only a minute effect on PDE activity.
(§3) After preincubation at 37° C. for 5 minutes, the reaction was started by addition of the substrate (cAMP or cGMP). The samples were incubated at 37° C. for a further 15 min. The reaction was terminated by addition of 50 μl 0.2 N HCl. After cooling on ice for 10 minutes and addition of 25 μg 5′-nucleotidase (snake venom from Crotalus atrox), the mixture was again incubated at 37° C. for 10 min and the samples were then applied to QAE Sephadex A-25 columns (sample volume 1 ml). The columns were eluted with 2 ml of 30 mM ammonium formate (pH 6.0). The radioactivity of the eluate was measured and corrected by the corresponding blank values (measured in the presence of denatured protein); the blank values were less than 5% of the total radioactivity. In no case did the proportion of hydrolyzed nucleotide exceed 30% of the original substrate concentration.
PDE4 (cAMP-specific) was investigated in the cytosol of human polymorphonuclear leukocytes (PMNL) [isolated from leukocyte concentrates, see Schudt et al., Arch Pharmacol 1991: 344, 682-690] using cAMP as substrate. The PDE3 inhibitor motapizone (1 μM) was used to suppress the PDE3 activity emanating from contaminated platelets.
(§4) The IC50 values were determined from the concentration-inhibition curves by nonlinear regression.

Another data set concerns the target T1, PDE3 (cGMP-inhibited) (Homo sapiens, UniProt Q14432).
T1 construct: investigated in homogenates of human platelets; from tissue; host or cells: homogenates of human platelets
Briefly: Inhibition of PDE isoenzymes: PDE3. It counts as biochemical. Particulars: homogenates of human platelets, cAMP or cGMP as substrate; read-out: PDE3 [-log IC50, mol/l] (converted). The procedure: as §1, §2, §3
PDE3 (cGMP-inhibited) was investigated in homogenates of human platelets (see Schudt et al., Biochem Pharmacol 1991: 42, 153-162) using cAMP or cGMP as substrate.
as §4

A word on the melting point: it is the temperature of the solid-liquid transition.

Structures can show the parent of a compound that is named as a salt.

T1 sequence (Q14432 whole entry): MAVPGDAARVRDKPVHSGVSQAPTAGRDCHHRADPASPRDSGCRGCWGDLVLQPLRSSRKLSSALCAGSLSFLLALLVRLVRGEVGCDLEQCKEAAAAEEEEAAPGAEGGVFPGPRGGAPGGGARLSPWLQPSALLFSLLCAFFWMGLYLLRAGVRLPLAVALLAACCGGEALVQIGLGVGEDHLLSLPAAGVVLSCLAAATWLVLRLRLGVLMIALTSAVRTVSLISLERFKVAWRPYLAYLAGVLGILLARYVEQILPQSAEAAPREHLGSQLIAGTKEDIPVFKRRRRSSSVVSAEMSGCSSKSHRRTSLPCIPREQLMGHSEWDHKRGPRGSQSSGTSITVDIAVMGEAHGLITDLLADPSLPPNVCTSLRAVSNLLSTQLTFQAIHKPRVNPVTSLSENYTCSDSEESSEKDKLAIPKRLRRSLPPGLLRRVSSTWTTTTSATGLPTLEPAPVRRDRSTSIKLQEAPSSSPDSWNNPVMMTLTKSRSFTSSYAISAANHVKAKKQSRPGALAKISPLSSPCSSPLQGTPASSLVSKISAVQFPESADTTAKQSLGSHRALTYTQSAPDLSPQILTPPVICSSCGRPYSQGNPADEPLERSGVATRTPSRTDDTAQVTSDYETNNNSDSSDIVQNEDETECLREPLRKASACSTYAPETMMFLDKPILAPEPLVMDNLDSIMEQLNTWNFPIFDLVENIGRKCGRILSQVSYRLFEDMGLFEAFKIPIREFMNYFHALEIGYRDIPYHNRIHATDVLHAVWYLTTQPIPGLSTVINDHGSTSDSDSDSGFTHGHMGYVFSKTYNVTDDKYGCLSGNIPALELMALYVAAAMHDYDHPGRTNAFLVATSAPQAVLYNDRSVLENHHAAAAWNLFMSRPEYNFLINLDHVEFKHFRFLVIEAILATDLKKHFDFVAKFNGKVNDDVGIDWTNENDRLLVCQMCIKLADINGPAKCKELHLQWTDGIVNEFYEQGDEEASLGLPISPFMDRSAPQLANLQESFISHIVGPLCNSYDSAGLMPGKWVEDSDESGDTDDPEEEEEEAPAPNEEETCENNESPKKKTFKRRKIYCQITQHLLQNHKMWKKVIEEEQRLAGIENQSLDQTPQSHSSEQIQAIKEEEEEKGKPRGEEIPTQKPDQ

Turning to `CCOc1cc2c(cc1OC)C(c1ccc(C(=O)NC(=N)NC(C)C)cc1)=N[C@H]1CCN(C)C[C@@H]21` (relative stereo) [Compound 15, N-{1-[4-((−)-cis-9-Ethoxy-8-methoxy-2-methyl-1,2,3,4,4a,10b-hexahydro-benzo[c][1,6]naphthyridin-6-yl)-phenyl]-methanoyl}-N′-isopropyl-guanidine], the “PDE4 [-log IC50, mol/l]” value at PDE4 (cAMP-specific) was 9.11. Further, at PDE3 (cGMP-inhibited), the IC50 is 155 nM. Consider `CCOc1cc2c(cc1OC)C(c1ccc(C(=O)NC(=N)NC)cc1)=N[C@H]1CCN(C)C[C@@H]21` (relative stereo) [Compound 14, N-{1-[4-((−)-cis-9-Ethoxy-8-methoxy-2-methyl-1,2,3,4,4a,10b-hexahydro-benzo[c][1,6]naphthyridin-6-yl)-phenyl]-methanoyl}-N′-methyl-guanidine], for which, at PDE4 (cAMP-specific), the “PDE4 [-log IC50, mol/l]” value is reported as 8.82. Besides, the IC50 on PDE3 (cGMP-inhibited) is 309 nM. On to `COc1cc2c(cc1OC)[C@@H]1CN(C)CC[C@@H]1N=C2c1ccc(C(=O)N=C(N(C)C)N(C)C)cc1.Cl`, for which the melting point lay in the range of 161 to 166 °C.

`CCOc1cc2c(cc1OC)C(c1ccc(C(=O)NC(=N)N(C)C)cc1)=NC1CCN(C)CC21` (stereo not drawn) (as salt: hydrochloride) [Compound 3, N′{1-[4-((+)-cis-9-Ethoxy-8-methoxy-2-methyl-1,2,3,4,4a,10b-hexahydro[c][1,6[-naphthyridin-6-yl)phenyl]methanoyl}-N,N-dimethylguanidinedihydrochloride] yielded a melting point of 134 to 141 °C. Take `CCNC(=N)NC(=O)c1ccc(C2=N[C@H]3CCN(C)C[C@H]3c3cc(OCC)c(OC)cc32)cc1` (relative stereo) [Compound 18, N-{1-[4-((−)-cis-9-Ethoxy-8-methoxy-2-methyl-1,2,3,4,4a,10b-hexahydro-benzo[c][1,6]naphthyridin-6-yl)-phenyl]-methanoyl}-N′-ethyl-guanidine]: the “PDE4 [-log IC50, mol/l]” value at PDE4 (cAMP-specific) amounted to 8.76. Besides, the IC50 on PDE3 (cGMP-inhibited) was 245 nM. `CCOc1cc2c(cc1OC)C(c1ccc(C(=O)N=C(N(C)C)N(C)C)cc1)=NC1CCN(C)CC21` (single isomer, unassigned) (as salt: hydrochloride) [Compound 5, N″{1-[4-((−)-cis-9-Ethoxy-8-methoxy-2-methyl-1,2,3,4,4a,10b-hexahydro[c][1.6]naphthyridin-6-yl)phenyl]methanoyl}-N,N,N′,N′-tetramethylguanidine hydrochloride] came in with a melting point of 169 to 175 °C. The compound `CCOc1cc2c(cc1OC)C(c1ccc(C(=O)NC(=N)N3CCOCC3)cc1)=NC1CCN(C)CC21` (stereo not drawn) (as salt: hydrochloride) [Compound 1, 4-[(+)-cis-9-Ethoxy-8-methoxy-2-methyl-1,2,3,4,4a,10b-hexahydro[c][1,6]naphthyridin-yl)-N-(1-imino-1-morpholin-4-ylmethyl)]benzamide dihydrochloride] registered a melting point of 208 to 218 °C. Regarding `CCOc1cc2c(cc1OC)C(c1ccc(C(=O)NC(=N)N(CC)CC)cc1)=NC1CCN(C)CC21` (stereo not drawn) [Compound 2, N′-{1-[4-((+)-cis-9-Ethoxy-8-methoxy-2-methyl-1,2,3,4,4a,10b-hexahydro[c][1,6]naphthyridin-6-yl)phenyl]methanoyl}-N,N-diethylguanidine dihydrochloride], on PDE4 (cAMP-specific), the “PDE4 [-log IC50, mol/l]” value was 9.77. Moreover, the IC50 at PDE3 (cGMP-inhibited) was 42.7 nM. For `CCOc1cc2c(cc1OC)C(c1ccc(C(=O)N=C(N)N3CCN(C)CC3)cc1)=NC1CCN(C)CC21` (stereo not drawn) [Compound 6, N-[1-Amino-1-(4-methylpiperazin-1-yl)methylene]-4-((+)-cis-9-ethoxy-8-methoxy-2-methyl-1,2,3,4,4a,10b-hexahydro[c][1,6]naphthyridin-6-yl)benzamide dihydrochloride] the same measures were 9.13 and 363 nM. As to `CCOc1cc2c(cc1OC)C(c1ccc(C(=O)NC(=N)NC3CCCCC3)cc1)=N[C@H]1CCN(C)C[C@@H]21` (relative stereo) [Compound 19, N-Cyclohexyl-N′-{1-[4-((−)-cis-9-ethoxy-8-methoxy-2-methyl-1,2,3,4,4a,10b-hexahydro-benzo [c][1,6]naphthyridin-6-yl)-phenyl]-methanoyl}-guanidine], on PDE4 (cAMP-specific), the “PDE4 [-log IC50, mol/l]” value is recorded as 9.50. For the same compound, the IC50 at PDE3 (cGMP-inhibited) is 132 nM.

`CCCCNC(=N)NC(=O)c1ccc(C2=N[C@H]3CCN(C)C[C@H]3c3cc(OCC)c(OC)cc32)cc1` (relative stereo) [Compound 21, N-Butyl-N′-{1-[4-((−)-cis-9-ethoxy-8-methoxy-2-methyl-1,2,3,4,4a,10b-hexahydro-benzo[c][1,6]naphthyridin-6-yl)-phenyl]-methanoyl}-guanidine]: the “PDE4 [-log IC50, mol/l]” value at PDE4 (cAMP-specific) stood at 9.49. In addition, the IC50 at PDE3 (cGMP-inhibited) was 129 nM. For the compound `CCOc1cc2c(cc1OC)C(c1ccc(C(=O)N=C(N(C)C)N(C)C)cc1)=NC1CCN(C)CC21` (single isomer, unassigned) [Compound 5, N″{1-[4-((−)-cis-9-Ethoxy-8-methoxy-2-methyl-1,2,3,4,4a,10b-hexahydro[c][1.6]naphthyridin-6-yl)phenyl]methanoyl}-N,N,N′,N′-tetramethylguanidine hydrochloride], at PDE4 (cAMP-specific), the “PDE4 [-log IC50, mol/l]” value is on record as 9.01. Moreover, the IC50 at PDE3 (cGMP-inhibited) was 129 nM.

`CCOc1cc2c(cc1OC)C(c1ccc(C(=O)NC(=N)N)cc1)=N[C@H]1CCN(C)C[C@@H]21` (relative stereo) [Compound 7, N-{1-[4-((−)-cis-9-Ethoxy-8-methoxy-2-methyl-1,2,3,4,4a,10b-hexahydro-benzo[c]-[1,6]naphthyridin-6-yl)-phenyl]-methanoyl}guanidine]: at PDE4 (cAMP-specific), the “PDE4 [-log IC50, mol/l]” value is on record as 8.83. Further, on PDE3 (cGMP-inhibited), the IC50 was 195 nM. Consider `CCOc1cc2c(cc1OC)C(c1ccc(C(=O)NC(=N)N(C)C)cc1)=NC1CCN(C)CC21` (stereo not drawn) [Compound 3, N′{1-[4-((+)-cis-9-Ethoxy-8-methoxy-2-methyl-1,2,3,4,4a,10b-hexahydro[c][1,6[-naphthyridin-6-yl)phenyl]methanoyl}-N,N-dimethylguanidinedihydrochloride], for which the “PDE4 [-log IC50, mol/l]” value on PDE4 (cAMP-specific) came to 9.39. Further, the IC50 at PDE3 (cGMP-inhibited) is 87.1 nM. As for `CCOc1cc2c(cc1OC)C(c1ccc(C(=O)NC(=N)NCC3CCCCC3)cc1)=N[C@H]1CCN(C)C[C@@H]21` (relative stereo) [Compound 20, N-Cyclohexylmethyl-N′-{1-[4-((−)-cis-9-ethoxy-8-methoxy-2-methyl-1,2,3,4,4a,10b-hexahydro-benzo[c][1,6]naphthyridin-6-yl)-phenyl]-methanoyl}-guanidine], the “PDE4 [-log IC50, mol/l]” value on PDE4 (cAMP-specific) is given as 9.65. Also, the IC50 on PDE3 (cGMP-inhibited) was 97.7 nM. For `CCOc1cc2c(cc1OC)C(c1ccc(C(=O)NC(=N)N3CCOCC3)cc1)=NC1CCN(C)CC21` (stereo not drawn) [Compound 1, 4-[(+)-cis-9-Ethoxy-8-methoxy-2-methyl-1,2,3,4,4a,10b-hexahydro[c][1,6]naphthyridin-yl)-N-(1-imino-1-morpholin-4-ylmethyl)]benzamide dihydrochloride] the same measures were 9.22 and 135 nM. On to `CCOc1cc2c(cc1OC)C(c1ccc(C(=O)NC(=N)N(C)CCO)cc1)=NC1CCN(C)CC21` (stereo not drawn) [Compound 4, N′-{1-[4-((+)-cis-9-Ethoxy-8-methoxy-2-methyl-1,2,3,4,4a,10b-hexahydro[c][1,6]naphthyridin-6-yl)phenyl]methanoyl}-N-(2-hydroxyethyl)-N-methylguanidine dihydrochloride], for which the “PDE4 [-log IC50, mol/l]” value at PDE4 (cAMP-specific) amounted to 8.34. For the same compound, at PDE3 (cGMP-inhibited), the IC50 is 1150 nM. For `CCOc1cc2c(cc1OC)C(c1ccc(C(=O)NC(=N)NCC(C)C)cc1)=N[C@H]1CCN(C)C[C@@H]21` (relative stereo) [Compound 17, N-{1-[4-((−)-cis-9-Ethoxy8-methoxy-2-methyl-1,2,3,4,4a,10b-hexahydro-benzo[c][1,6]naphthyridin-6-yl)-phenyl]-methanoyl}-N′-isobutyl-guanidine] the same measures were 9.34 and 123 nM. As to `CCCNC(=N)NC(=O)c1ccc(C2=N[C@H]3CCN(C)C[C@H]3c3cc(OCC)c(OC)cc32)cc1` (relative stereo) [Compound 16, N-{1-[4-((−)-cis-9-Ethoxy-8-methoxy-2-methyl-1,2,3,4,4a,10b-hexahydro-benzo[c][1,6]naphthyridin-6-yl)-phenyl]-methanoyl}-N′-propyl-guanidine], the “PDE4 [-log IC50, mol/l]” value at PDE4 (cAMP-specific) is on record as 9.65. Besides, on PDE3 (cGMP-inhibited), the IC50 is 166 nM.

The record behind these values is patent US6936622B2, “6-phenylbenzonaphthyridines” (Altana Pharma AG, priority 2001, dated 2005).
